Literature values as cited in US20050153948A1, “Methods and formulations for the treatment of medical conditions related to elevated dihydrotestosterone” (Zomanex, LLC, priority 2003, published 2005).

Legend:
[1] = aqueous sterol/lecithin formulation, deuterated compounds, humans
[2] = target: T1, Type I human reductase (Homo sapiens, UniProt P18405); conditions: Type I human 5α-reductase; read-out: K1 for Type I human reductase
T1 sequence (P18405 1-259): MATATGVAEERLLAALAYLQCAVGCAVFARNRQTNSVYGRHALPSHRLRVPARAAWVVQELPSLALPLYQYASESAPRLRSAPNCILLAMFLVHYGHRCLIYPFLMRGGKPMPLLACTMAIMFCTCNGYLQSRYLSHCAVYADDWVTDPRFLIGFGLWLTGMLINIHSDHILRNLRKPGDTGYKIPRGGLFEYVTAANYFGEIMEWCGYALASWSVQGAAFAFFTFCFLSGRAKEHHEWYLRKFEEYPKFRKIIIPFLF

[3] = target: T2, type II enzyme (5α-reductase) (Homo sapiens, UniProt P31213); conditions: type II 5α-reductase; read-out: K1 for type II enzyme
T2 sequence (P31213 1-254): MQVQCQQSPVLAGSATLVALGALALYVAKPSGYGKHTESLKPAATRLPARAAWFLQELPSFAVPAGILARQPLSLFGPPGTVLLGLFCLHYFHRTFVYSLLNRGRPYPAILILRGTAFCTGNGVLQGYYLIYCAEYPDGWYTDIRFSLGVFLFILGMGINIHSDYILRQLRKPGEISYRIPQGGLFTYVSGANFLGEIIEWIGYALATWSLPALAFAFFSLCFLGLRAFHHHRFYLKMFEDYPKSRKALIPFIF

[4] = system: prostate (benign prostatic hyperplasia); conditions: long-term use; reduced from about 10 percent
[5] = system: prostate cancer; conditions: 5 mg per day, seven-year trial; placebo group 24.4 percent
[6] = system: circulating serum DHT; conditions: two clinical trials

Row | SMILES | absorption relative to reduced derivatives sitostanol and campestanol [1] | Ki [2] | Ki [3] | need for surgical intervention for BPH [4] | cumulative incidence of cancer [5] | reduction in circulating serum DHT [6]
1 | CC(C)[C@H](C)CC[C@@H](C)[C@H]1CC[C@H]2[C@@H]3CC=C4C[C@@H](O)CC[C@]4(C)[C@H]3CC[C@]12C [campesterol] | about ten | – | – | – | – | –
2 | CC(C)(C)NC(=O)[C@H]1CC[C@H]2[C@@H]3CC[C@H]4NC(=O)C=C[C@]4(C)[C@H]3CC[C@]12C [finasteride] | – | 325 nM | 12 nM | 5% | 18.4% | 65%
3 | CC[C@H](CC[C@@H](C)[C@H]1CC[C@H]2[C@@H]3CC=C4C[C@@H](O)CC[C@]4(C)[C@H]3CC[C@]12C)C(C)C [sitosterol] | about ten | – | – | – | – | –
